One compound from patent US20190380965A1 (priority 2018, published 2019) can be followed below.

The format of this data set is physicochemical. Particulars: for drug dissolved in water: 500 mg flucytosine added to 10 mL water. The procedure: The powder and granule pharmaceutical compositions of the present invention dissolve or suspend when added to water quickly. This pharmaceutical composition is therefore termed as “quick water-dispersing”. The term “quick” herein is defined as less than 2 to 3 minutes when shaken gently. In other words, when the granules are added to water, and gently mixed, a suspension is formed in less than 2 to 3 minutes. The “quick water-dispersing” property was achieved by selecting a correct particle size of suspending agent(s) which is the novelty of this invention. The suspension is achieved by simple mixing of powder in water—without use of complex instruments which are available in the home-environment to patients. […] After reaching the gastro-intestinal tract, the remaining drug dissolves. The pharmaceutical compositions according to the present invention provide for an immediate release of the Flucytosine from the dosage form.
USP II apparatus were used and UV-visible spectrometer was used for quantification of Flucytosine from dissolution. […] When we combine other antifungal agents in this formulation, the dissolved fraction of flucytosine will change.

Where two headings read alike, the source gives them in different places.

Take `Nc1nc(=O)[nH]cc1F` [Flucytosine, 5-fluorocytosine]: the “drug dissolved in water” value is “about 150 mg”. Moreover, the “drug dissolved in water” value (listed as flucytosine) came to 150 mg. Also, under “dose of 500 mg flucytosine”, the “water needed to dissolve the drug” value came out at 33.3 mL.
